This is an account of results in patent publication US4843087A (priority 1986, dated 1989).

Converted amounts (≈) assume the structure as drawn.

Assay [1] deals with human rhinovirus (HRV) serotypes. Kind of assay: microbe, parasite or virus in culture. Type of assay: cell-based. Particulars: for MIC50: read-out: Rhinovirus MIC50; for IC (MIC80 of serotype panel): read-out: Rhinovirus MIC80.
The subject of another assay is Polio 2. Kind of assay: microbe, parasite or virus in culture. Type of assay: cell-based, poliovirus. The settings on record: Enterovirus C, HeLa, read-out: Polio 2 MIC.

Take `Cc1cc(CCCCCOc2ccc(C3=NCCO3)cc2C)on1` [Example 46, 5-{5-[4-(4,5-Dihydro-2-oxazolyl)-2-methylphenoxy]pentyl}-3-methylisoxazole]: in assay [1], the MIC50 worked out at 0.09 µg/mL (≈ 0.274 µM) and the IC (MIC80 of serotype panel) was 0.2 µg/mL. The MIC in the assay on Polio 2 turned out to be 0.1 µg/mL (≈ 0.304 µM).
The matching figures for `Cc1cc(CCCCCOc2ccc(C3=NCCO3)c(Cl)c2)on1` [Example 47, 5-{5-[3-Chloro-4-(4,5-dihydro-2-oxazolyl)phenoxy]pentyl}-3-methylisoxazole]: 0.36 µg/mL (≈ 1.03 µM), 2.4 µg/mL and 0.02 µg/mL (≈ 0.0573 µM).
Taken in the same sequence, the figures for `Cc1cc(CCCCCCOc2ccc(C3=NC(C)CO3)cc2Cl)on1` (stereo not drawn) [Example 48, 5-{6-[2-Chloro-(4,5-dihydro-4-methyl-2-oxazolyl)phenoxy]hexyl}-3-methylisoxazole] were 0.13 µg/mL (≈ 0.345 µM), 0.37 µg/mL and 2.3 µg/mL (≈ 6.1 µM).
Taken in the same sequence, the figures for `Cc1cc(CCCCCOc2ccc(C3=NCCO3)cc2N)on1` [Example 49, 5-{5-[2-Amino-4-(4,5-dihydro-2-oxazoyl)phenoxy]pentyl}-3-methylisoxazole] were 1.1 µg/mL (≈ 3.34 µM), 4.6 µg/mL and 2 µg/mL (≈ 6.07 µM).
`Cc1cc(CCCCCCCOc2ccc(C3=NCCO3)c(Cl)c2)on1` [Example 50, 5-{7-[3-Chloro-4(4,5-dihydro-2-oxazolyl)phenoxy]heptyl}-3-methylisoxazole]: in assay [1], the MIC50 is 5.05 µg/mL (≈ 13.4 µM) and the IC (MIC80 of serotype panel) turned out to be 99 µg/mL. Also, the MIC in the assay on Polio 2 turned out to be 0.7 µg/mL (≈ 1.86 µM).
The matching figures for `Cc1cc(CCCCCOc2ccc(C3=NCCO3)c(C)c2)on1` [Example 51, 5-{5-[4-(4,5-Dihydro-2oxazolyl)-3-methylphenoxy]pentyl}-3-methylisoxazole]: 0.56 µg/mL (≈ 1.71 µM), 1.6 µg/mL and 0.045 µg/mL (≈ 0.137 µM).
For the compound `Cc1cc(CCCCCOc2ccc(C3=NCCO3)c(O)c2)on1` [Example 52, 5-{5-[4-(4,5-Dihydro-2-oxazolyl)-3-hydroxyphenoxy]pentyl}-3-methylisoxazole], in assay [1], the MIC50 is 0.084 µg/mL (≈ 0.254 µM) and the IC (MIC80 of serotype panel) was 1.9 µg/mL. Moreover, the MIC with Polio 2 was determined as 0.003 µg/mL (≈ 0.00908 µM).
The matching figures for `Cc1cc(CCCCCOc2ccc(C3=NCCO3)cc2[N+](=O)[O-])on1` [Example 53, 5-{5-[4-(4,5-Dihydro-2-oxazolyl)-2-nitrophenoxy]pentyl}-3-methylisoxazole]: 0.087 µg/mL (≈ 0.242 µM), 0.64 µg/mL and 0.08 µg/mL (≈ 0.223 µM).
Taken in the same sequence, the figures for `Cc1cc(CCCCCOc2ccc(C3=NCCO3)cc2C(F)(F)F)on1` [Example 54, 5-{5-[4-(4,5-Dihydro-2-oxazolyl)-2-trifluoromethylphenoxy]pentyl}-3-methylisoxazole] were 0.08 µg/mL (≈ 0.209 µM), 0.42 µg/mL and 1.3 µg/mL (≈ 3.4 µM).
Taken in the same sequence, the figures for `Cc1cc(CCCCCOc2ccc(C3=NC(C)CO3)cc2)on1` (stereo not drawn) [Example 56, 5-{5-[4-(4,5-Dihydro-4-methyl-2-oxazolyl)phenoxy]pentyl}-3-methylisoxazole] were 0.164 µg/mL (≈ 0.499 µM), 25.3 µg/mL and 0.07 µg/mL (≈ 0.213 µM).
In the case of `Cc1cc(CCCCCCCOc2ccc(C3=NCCO3)c(O)c2)on1` [Example 59, 5-{7-[4-(4,5-Dihydro-2-oxazolyl)-3-hydroxyphenoxy]heptyl}-3-methylisoxazole], in assay [1], the MIC50 was 0.435 µg/mL (≈ 1.21 µM) and the IC (MIC80 of serotype panel) is 25.2 µg/mL. Further, the MIC with Polio 2 came out at 0.04 µg/mL (≈ 0.112 µM).
The matching figures for `CCc1cc(C2=NCCO2)ccc1OCCCCCc1cc(C)no1` [Example 60, 5-{5-[4-(4,5-Dihydro-2-oxazolyl)-2-ethylphenoxy]pentyl}-3-methylisoxazole]: 0.1 µg/mL (≈ 0.292 µM), 0.7 µg/mL and 0.24 µg/mL (≈ 0.701 µM).
The matching figures for `C=CCc1cc(C2=NCCO2)ccc1OCCCCCc1cc(C)no1` [Example 61, 5-{5-[4-(4,5-Dihydro-2-oxazolyl)-2-(2-propenyl)phenoxy]pentyl}-3-methylisoxazole]: 0.39 µg/mL (≈ 1.1 µM), 0.75 µg/mL and 0.54 µg/mL (≈ 1.52 µM).
For the compound `Cc1cc(CCCCCOc2ccc(C3=NC(C)(C)CO3)cc2)on1` [Example 62, 5-{5-[4-(4,5-Dihydro-4,4-dimethyl-2-oxazolyl)phenoxy]pentyl}-3-methylisoxazole], in assay [1], the MIC50 was determined as 1.5 µg/mL (≈ 4.38 µM) and the IC (MIC80 of serotype panel) amounted to 2.4 µg/mL. For the same compound, the MIC with Polio 2 came to 0.51 µg/mL (≈ 1.49 µM).
For `CC(=O)c1cc(C2=NCCO2)ccc1OCCCCCc1cc(C)no1` [Example 63, 5-{5-[4-(4,5-Dihydro-2-oxazolyl)-2-acetylphenoxy]pentyl}-3-methylisoxazole], in assay [1], the MIC50 came to 0.55 µg/mL (≈ 1.54 µM) and the IC (MIC80 of serotype panel) is 1.05 µg/mL. For the same compound, the MIC in the assay with Polio 2 was found to be 2.3 µg/mL (≈ 6.45 µM).
Taken in the same sequence, the figures for `Cc1cc(CCCCOc2ccc(C3=NC(C)CO3)cc2)on1` (stereo not drawn) [Example 64, 5-{4-[4-(4,5-Dihydro-4-methyl-2-oxazoly)phenoxy]butyl}-3-methylisoxazole] were 0.485 µg/mL (≈ 1.54 µM), 25.6 µg/mL and 2.4 µg/mL (≈ 7.63 µM).
Taken in the same sequence, the figures for `Cc1cc(CCC=CCOc2ccc(C3=NCCO3)cc2Cl)on1` [Example 68, 5-{5-[2-Chloro-4-(4,5-dihydro-2-oxazolyl)phenoxy]-3-pentenyl}-3-methylisoxazole] were 0.4 µg/mL (≈ 1.15 µM), 1 µg/mL and 0.23 µg/mL (≈ 0.663 µM).
The matching figures for `Cc1cc(CCCCCOc2ccc(C3=NCCO3)cc2C=O)on1` [Example 70, 5-{5-[4-(4,5-Dihydro-2-oxazolyl)-2-formylphenoxy]pentyl}-3-methylisoxazole]: 0.85 µg/mL (≈ 2.48 µM), 1.6 µg/mL and 0.1 µg/mL (≈ 0.292 µM).
With `Cc1cc(CCCCCOc2c(Br)cc(C3=NCCO3)cc2Br)on1` [Example 74, 5-{5-[2,6-Dibromo-4-(4,5-dihydro-2-oxazolyl)phenoxy]pentyl}-3-methylisoxazole], in assay [1], the MIC50 came to 0.13 µg/mL (≈ 0.275 µM) and the IC (MIC80 of serotype panel) turned out to be 0.59 µg/mL. For the same compound, the MIC in the assay with Polio 2 came to 2 µg/mL (≈ 4.24 µM).
Taken in the same sequence, the figures for `Cc1cc(CCCCCOc2ccc(C3=NCC(CO)O3)cc2)on1` (stereo not drawn) [Example 75, 5-{5-[4-(4,5-Dihydro-5-hydroxymethyl-2-oxazolyl)phenoxyl]pentyl}-3-methylisoxazole] were 9.95 µg/mL (≈ 28.9 µM), 35.2 µg/mL and 0.69 µg/mL (≈ 2 µM).
Taken in the same sequence, the figures for `Cc1cc(CCCCCOc2ccc(C3=NC(C)CO3)c(Cl)c2)on1` (stereo not drawn) [Example 77, 5-{5-[3-Chloro-4-(4,5-dihydro-4-methyl-2-oxazolyl)phenoxy]pentyl}-3-methylisoxazole] were 0.088 µg/mL (≈ 0.243 µM), 1.47 µg/mL and 0.05 µg/mL (≈ 0.138 µM).
Taken in the same sequence, the figures for `Cc1cc(CCCCCOc2ccc(C3=NCCO3)c(C)c2C)on1` [Example 79, 5-{5-[4-(4,5-Dihydro-2-oxazolyl)-2,3-dimethylphenoxy]pentyl}-3-methylisoxazole] were 0.3 µg/mL (≈ 0.876 µM), 0.7 µg/mL and 2.3 µg/mL (≈ 6.72 µM).
On to `Cc1cc(CCCCCOc2ccc(C3=NCCO3)c(O)c2C)on1` [Example 80, 5-{5-[4-(4,5-Dihydro-2-oxazolyl)-3-hydroxy-2-methylphenoxy]pentyl}-3-methylisoxazole], for which, in assay [1], the MIC50 is 0.13 µg/mL (≈ 0.377 µM) and the IC (MIC80 of serotype panel) came out at 0.27 µg/mL. In addition, the MIC in the assay on Polio 2 is 0.11 µg/mL (≈ 0.319 µM).
